Measurements: US3985738A, “7-(D-. alpha.-Hydroxy-2-arylacetamido)-3-(tetrazolo-[4,5-b]pyridazin-6-ylthiomet hyl)-3-cephem-4-carboxylic acids” (Bristol-Myers Company, priority 1974, dated 1976)
Values after ≈ are worked out from the molar mass of the structure shown.

Experiments:
Assay in all cases: In vitro antibacterial activity, tube dilution method (Nutrient Broth)
Type in all cases: cell-based
Pr. morganii A15153 = details: Morganella morganii
Source text: (§1) In vitro Antibacterial Activity of BB-S266 by Tube Dilution Method (Nutrient Broth).

E. coli NIHJ = details: Escherichia coli
Source text: as §1

Sal. enteritidis A9531 = details: Salmonella enterica
Source text: as §1

E. coli ATCC 8739 = details: Escherichia coli, ATCC8739
Source text: as §1

S. aureus Smith = details: Staphylococcus aureus
Source text: as §1

S. aureus Russel = details: Staphylococcus aureus
Source text: as §1

Dip. pneumoniae = details: Streptococcus pneumoniae
Source text: as §1

E. coli Juhl A15119 = details: Escherichia coli, JUHLA15119
Source text: as §1

Ser. marcescens A20019 = details: Serratia marcescens
Source text: as §1

St. pyogenes A9604 = details: Streptococcus pyogenes
Source text: as §1

Mycobacterium 607 = test system: Mycobacterium 607
Source text: as §1

S. aureus BX-1633 = details: Staphylococcus aureus, BX1633
Source text: as §1

Ps. aeruginosa A9843 = details: Pseudomonas aeruginosa
Source text: as §1

Pr. mirabilis A9900 = details: Proteus mirabilis
Source text: as §1

Kl. pneumoniae A15130 = details: Klebsiella pneumoniae
Source text: as §1

Kl. pneumoniae A9977 = details: Klebsiella pneumoniae
Source text: as §1

**Q.** Which results are given for `O=C(O)C1=C(CSc2ccc3nnnn3n2)CS[C@@H]2C(NC(=O)[C@H](O)c3ccccc3)C(=O)N12` (stereo partly drawn) [BB-S266, 7-(D-α-HYDROXY-α-PHENYLACETAMIDO)-3-(TETRAZOLO[4,5-B]PYRIDAZIN-6-YLTHIOMETHYL)-3-CEPHEM-4-CARBOXYLIC ACID]?
**A.** MIC (Pr. morganii A15153): 50 µg/mL (≈ 100 µM); MIC (E. coli NIHJ): 0.08 µg/mL (≈ 0.16 µM); MIC (Sal. enteritidis A9531): 0.4 µg/mL (≈ 0.801 µM); MIC (E. coli ATCC 8739): 1.6 µg/mL (≈ 3.2 µM); MIC (S. aureus Smith; S. aureus Smith): 0.1 µg/mL (≈ 0.2 µM); MIC (S. aureus Smith; S. aureus Smith + 50% serum): 0.2 µg/mL; MIC (S. aureus Russel): 0.4 µg/mL (≈ 0.801 µM); MIC (Dip. pneumoniae): 0.01 µg/mL (≈ 0.02 µM); MIC (E. coli Juhl A15119): 3.1 µg/mL (≈ 6.21 µM); MIC (Ser. marcescens A20019): 100 µg/mL (≈ 200 µM); MIC (St. pyogenes A9604): 0.01 µg/mL (≈ 0.02 µM); MIC (Mycobacterium 607): < 100 µg/mL; MIC (S. aureus BX-1633): 0.8 µg/mL (≈ 1.6 µM); MIC (Ps. aeruginosa A9843): < 100 µg/mL; MIC (Pr. mirabilis A9900): 6.3 µg/mL (≈ 12.6 µM); MIC (Kl. pneumoniae A15130): 3.1 µg/mL (≈ 6.21 µM); MIC (Kl. pneumoniae A9977): 3.1 µg/mL (≈ 6.21 µM)
